Test results as given in US20240350430A1, “GROWTH INHIBITOR OF METASTATIC HUMAN PROSTATE CANCER CELLS” (Watanabe Oyster Laboratory Co., Ltd., priority 2021, published 2024).

Test system: PC-3 cells
Assay: Cell death of sub-confluent PC-3 cells (adherent cell counting)
Assay type: cell-based, human
Method: The PC-3 and DU-145 cells (1×10^5/in 1 ml of a culture fluid per hole using a 24-hole plate) were cultured in a DMEM culture fluid (containing 10% of FBS, 1% of P/S, and 1% of fungizone) under 5% of CO2, at 37° C., for three days, and when the cells reached sub-confluence, the culture fluid was exchanged for the one containing the DHMBA (0.01, 0.1, 1, 10, 100, or 1000 μM), and the cells were cultured for 24 and 48 hours. After the culture, the cells adhering to the bottom surface of the dish were removed and counted. In another experiment, after the culture for three days, when the cells reached sub-confluence, the culture fluid was exchanged for a culture fluid containing the DHMBA (1 or 10 μM) and a caspase-3 inhibitor (10 μM), and the cells were counted after the culture for 48 hours. Further, after the culture for three days, when the cells reached sub-confluence, the culture fluid was exchanged for a culture fluid obtained by adding gemcitabine (0.1, 1, 10, 50 or 100 nM) or CH223191 (1, 10, and 25 μM) to a DMEM culture fluid containing the DHMBA (1 or 10 μM) or not containing the DHMBA, and the cells were counted after the culture for 48 hours.
After the culture of the cells, 0.1 ml of 0.05% trypsin-EDTA solution obtained by dissolving the cells adhering to the bottom surface of the culture dish in PBS (Thermo Fisher Scientific, Waltham, MA, USA) not containing Ca^2+/Mg^2+ was added, incubation was performed at 37° C. for two minutes to release the adhering cells, and 0.9 ml of the DMEM culture fluid containing 10% of FBS and 1% of P/S was added to stop the reaction. The visible cells were counted by the Olympus MTV-3 microscope using a hemocytometer (Sigma-Aldrich).
(§1) In the drawing, the PC-3 (FIGS. 5(A) and 5(B)) and DU-145 (FIGS. 5(D) and 5(E)) cells (1×10^5/in 1 ml of a culture fluid per hole using a 24-hole plate) were cultured under 5% of CO2, at 37° C., for three days in a DMEM culture fluid (containing 10% of FBS, 1% of P/S, and 1% of fungizone), and when the cells reached sub-confluence, the culture fluid was exchanged for the one containing the DHMBA (0.01, 0.1, 1, 10, 100, or 1000 μM), and the cells were cultured for 24 and 48 hours. In the drawing, after the culture, the cells adhering to the dish were counted.
In another experiment, after the culture for three days, when the cells reached sub-confluence, for the PC-3 (FIG. 5(C)) or DU-145 (FIG. 5(F)) cells, the culture fluid was exchanged for a culture fluid containing the DHMBA (1 or 10 μM) and a caspase-3 inhibitor (10 μM), and the cells were counted after the culture for 48 hours. Further, after the culture for three days, when the cells reached sub-confluence, the culture fluid was exchanged for a culture fluid obtained by adding gemcitabine (0.1, 1, 10, 50 or 100 nM) or CH223191 (1, 10, and 25 μM) to a DMEM culture fluid containing the DHMBA (1 or 10 μM) or not containing the DHMBA, and the cells were counted after the culture for 48 hours. After the culture, the cells adhered to the dish were removed and counted. Each piece of data is shown with a mean value and a standard deviation of values obtained from eight wells of the different cultured cells. *p<0.001, comparison with the control (gray bar). 1-way ANOVA, Tukey-Kramer post-test.
as §1, with “The” for “In the drawing, the”, “PC-3” for “PC-3 (FIGS. 5(A) and 5(B)) and DU-145 (FIGS. 5(D) and 5(E))”, “gemcitabine (1,” for “DHMBA (0.01, 0.1, 1,”, “10, 50,” for “10,”, “250 nM),” for “1000 μM),”, “for” for “for 24 and”
After the culture for three days, when the cells reached sub-confluence, the culture fluid was exchanged for a culture fluid containing the DHMBA (1 or 10 μM) and gemcitabine (1, 10, or 100 nM), and the cells were counted after the culture for 48 hours. […]

With `COc1c(O)cc(CO)cc1O` [DHMBA, 3,5-dihydroxy-4-methoxybenzyl alcohol] the “cell death inducing effect of DHMBA in the presence of CH223191” value (DHMBA 10 μM with CH223191 1, 10, or 25 μM, 48 hours) was “found not to be expressed”, the cell death (DHMBA 1, 10, 100, or 1000 μM, 24 and 48 hours) was “significantly increased” and the “cell death inducing action of DHMBA in the presence of gemcitabine 1 or 10 nM” value (DHMBA 1 and 10 μM, 48 hours) was “did not occur”. For the same molecule, the “cell death inducing effect of DHMBA in the coexistence of gemcitabine 100 nM” value (DHMBA 1 and 10 μM, 48 hours) was “significantly enhanced” and the “increase of cell death in the presence of caspase-3 inhibitor” value (DHMBA 1 or 10 μM with caspase-3 inhibitor 10 μM, 48 hours) was “not caused”.
